Experiments:
elastase = conditions: cited from earlier work
Description: (§1) The heparin component of the hydrogel matrix provides favorable additional anti‐inflammatory properties and interacts with the cleaving enzyme in different ways: Elastase has an anion binding site, which mediates binding to the DNA in neutrophil extracellular traps (NETs), to heparin and heparan sulfates, and also leads to accumulation at the hydrogel.^[ [21] ^] […] Additionally, direct inhibition of elastase acti ...

α1‐antitrypsin = conditions: cited from earlier work
Description: as §1

human leukocyte elastase = experiment: Inhibition of leukocyte elastase by heparin; assay type: biochemical; conditions: U-shaped, heparin 0.01–5 µg/mL (≈0.002–1 U/mL); 10 nmol/L elastase, 250 µmol/L MeOSuc-Ala-Ala-Pro-Val-pNA, Tris-HCl pH 7.4, 100 mmol/L NaCl, 0.1% BSA, 5 min pre-incubation, 37 °C, 30 min, 405 nm; normalized to control without heparin; mean ± SD of n=2
Method: Figure S2: Inhibition of leukocyte elastase by heparin. A concentration of 10 nmol L-1 human leukocyte elastase was used to cleave 250 µmol L -1 chromogenic substrate in the presence of different heparin concentrations. The substrate cleavage was monitored photometrically at a wavelength of 405nm by the release of p- nitroaniline from the chromogenic substrate methoxysuccinyl-Ala-Al a-Pro-V al-pNA over 30 min. Values were normalized to a cont rol sample without heparin; mean ± SD of n=2.
(1 picture or pasted object on this page, not shown here) […]
The enzymatic reaction was evaluated after indicated timepoints by analytical HPLC, followed by integral anal ysis of the peak signals for educt and cleavage products. […]
To evaluate the influence of the hydrogel component heparin on the activity of leukocyte elastase, samples with heparin sodium salt concentrations of 0.001- 1 000µg mL -1 were prepared in 50mmol L -1 Tris-HCl pH 7.4 supplemented with 100mmol L -1 NaCl and 0.1% BSA and pre-incubated with 10nmol L -1 leukocyte elastase for 5 min. Subsequently, the cleavage of 250 µmol L-1 chromogenic substrate MeOSuc-Ala-Ala-Pro-V al-pNA by leukocyte elastase in the presence of the different heparin concentrations was measured as reaction kinetic at 37°C for 30min using the Spark TM 10M multimode microplate reader (Tecan) at 405 nm and c ompared to a cont rol without heparin.

cyclophilin A (CypA) = cyclophilin A (CypA) (Homo sapiens, UniProt P62937); experiment: PPIase inhibition; assay type: biochemical; conditions: PPIase assay, Table S2
Sequence of cyclophilin A (CypA) (P62937 whole entry): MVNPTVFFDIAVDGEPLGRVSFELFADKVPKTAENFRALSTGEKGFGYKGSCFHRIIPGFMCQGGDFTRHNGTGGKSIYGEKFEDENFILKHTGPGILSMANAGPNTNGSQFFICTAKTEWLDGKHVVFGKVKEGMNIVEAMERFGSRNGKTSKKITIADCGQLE
Method: From the activity against the inhibitor concentrations, the IC50 and the K i value were determined with nonlinear curve fitting according to the models of Morrison^[ [41] ^] and Murphy.^[ [42] ^]

calcineurin = calcineurin (Homo sapiens, UniProt P62937+P63098+Q08209)
Sequence of calcineurin (P63098 whole entry, other chains not shown): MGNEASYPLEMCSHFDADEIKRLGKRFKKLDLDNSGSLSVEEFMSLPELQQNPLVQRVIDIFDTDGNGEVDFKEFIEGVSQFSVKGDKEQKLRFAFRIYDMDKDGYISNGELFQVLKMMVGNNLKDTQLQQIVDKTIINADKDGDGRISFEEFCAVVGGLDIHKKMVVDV
Sequence of calcineurin (P62937 whole entry, other chains not shown): as the sequence (P62937 whole entry) above

[1] = biological target: T1, human neutrophil elastase (Homo sapiens, UniProt P08246); experiment: Enzymatic cleavage of elastase-responsive peptide and PEG-AAPV conjugate; assay type: biochemical; conditions: 7 mmol/L AAPV peptide, 20 nmol/L human neutrophil elastase, PBS pH 7.4, 37 °C, analytical HPLC
T1 construct: purchased Merck/Calbiochem
T1 sequence (P08246 30-267): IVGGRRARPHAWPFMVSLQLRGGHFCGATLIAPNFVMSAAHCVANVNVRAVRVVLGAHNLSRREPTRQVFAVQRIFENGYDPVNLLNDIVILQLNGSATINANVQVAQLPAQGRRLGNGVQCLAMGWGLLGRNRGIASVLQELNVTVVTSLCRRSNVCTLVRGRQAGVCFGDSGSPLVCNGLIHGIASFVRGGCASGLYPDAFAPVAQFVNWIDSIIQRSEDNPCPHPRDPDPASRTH
Method: starPEG-peptide conjugate with full starPEG arm saturation by the leukocyte elastas e responsive AAPV peptide was added to the reaction solution in 4-fold excess, to finally result […]
The reaction mixture was directly used for hydrogel format ion.
S1.3. Supplement –Basic analysis
Enzymatic clea vage of el astase- responsive peptide and PEG-AAPV conjug ate To analyze leuko cyte elastase mediated hydrolysis of the responsive peptide and the corresponding conjugate, 7 mmol L -1 AAPV peptide or 0.7 mmol L -1 starPEG-AAPV conjugate w er e incub ated with 20 nmol L -1 human neutrophil el astase in PBS, pH 7.4 at 37°C.
The enzymatic reaction was evaluated after indicated timepoints by analytical HPLC, followed by integral anal ysis of the peak signals for educt and cleavage products.
Inhibition of leukocyte el astaseby heparin
To evaluate the influence of the hydrogel component heparin on the activity of leukocyte elastase, samples with heparin sodium salt concentrations of 0.001- 1 000µg mL -1 were prepared in 50mmol L -1 Tris-HCl pH 7.4 supplemented with 100mmol L -1 NaCl and 0.1% BSA and pre-incubated with 10nmol L -1 leukocyte elastase for 5 min. […]

leukocyte = test system: leukocyte; design: method as in PMID 10354404; conditions: specific for C5aR1; cited from earlier work
[2] = biological target: C5a receptor (C5aR1 or CD88); conditions: C5a receptor inhibitor; read-out: IC50 of PMX53; cited from earlier work
Description: PMX53 is derived from the C‐terminus of the C5a fragment. Therefore, N‐terminal sequence extension by a glycine spacer and a cysteine group appeared possible without loss of activity.^[ [19], [30] ^] (Table S1, Supporting Information). The obtained peptide was linked to the elastase‐responsive hydrogel platform as an anti‐inflammatory feedback control system. The low IC50 concentration (IC50 = 20 nmol L^−1[ [19] ^]) allowed for a low functionalization degree at the hydrogel of only 2% of the starPEG‐AAPV‐arms.

complement system = experiment: Complement activation in whole blood with zymosan (C5a ELISA); assay type: cell-based, human; conditions: zymosan 10 µg/mL, 30 min, 37 °C, 4W9A alone and conjugated to cleavage fragment (Figure S4, 10 µmol/L, n = 3)
Method: Figure 3 Cleavage of inflammation‐responsive hydrogels in an in vitro inflammation model and assessment of the anti‐inflammatory effects of the released drugs. A) For hydrogel cleavage, isolated polymorphonuclear granulocytes (PMN) are activated with complement‐opsonized zymosan (OPZ) in cell culture media and incubated with the hydrogel over 2 h at 37 °C. The cell‐free supernatant containing the released bioactive is used to test the anti‐inflammatory effect in the corresponding system. B) 4W9A: Measurement of complement activation in whole blood activated with zymosan. C) PMX53: Activation of isolated PMN by zymosan activated serum, measured as CD11b expression (*P < 0.05, **P < 0.01 in t‐test).
The amount of Atto488 released from the hydrogel as a model drug was determined by fluorescence measurement at λ ex. = 485 nm/λ em. = 535 nm against an Atto488 standard. […] Cell activation was determined by flow cytometry using CD11b‐VioBlue staining (Biolegend) for isolated granulocytes and additionally CD14‐APC and CD41a‐FITC (both BD Biosciences, New Jersey, USA) for whole blood samples. Leukocyte elastase and C5a concentrations were determined using the commercial ELISA kits Hycult human elastase ELISA (Hycult Biotech, Uden, Netherlands) and C5a micro ELISA (DRG, Marburg, Germany) according to the manufactures instructions.

extracellular CypA = conditions: cited from earlier work

Molecule: heparin
- elastase activity inhibition by heparin binding (elastase): direct inhibition of elastase activity by heparin binding has been reported
- α1-antitrypsin activity (α1‐antitrypsin): decreases the activity of α1‐antitrypsin
- suppression of elastase activity to (residual activity) (human leukocyte elastase): about 50%

Molecule: CC[C@@H]1NC(=O)[C@H]([C@H](O)[C@H](C)Cc2nc3cc(C(=O)N[C@H](CCC(=O)O)C(=O)N[C@H](CCC(=O)O)C(=O)N[C@H](CCC(=O)O)C(=O)N[C@H](CCC(=O)O)C(=O)N[C@H](CCC(=O)O)C(=O)N[C@H](CCC(=O)O)C(=O)NCC(=O)N[C@@H](CCCCN)C(=O)NCC(=O)N[C@@H](C)C(=O)N[C@@H](C)C(=O)N4CCC[C@H]4C(=O)N[C@H](C(=O)NCC(=O)NCC(=O)N[C@@H](CS)C(N)=O)C(C)C)ccc3[nH]2)N(C)C(=O)[C@H](C(C)C)N(C)C(=O)[C@H](CC(C)C)N(C)C(=O)[C@H](CC(C)C)N(C)C(=O)[C@@H](C)NC(=O)[C@H](C)NC(=O)[C@H](CC(C)C)N(C)C(=O)[C@H](C(C)C)NC(=O)[C@H](CC(C)C)N(C)C(=O)CN(C)C1=O [MM623]
- CypA inhibition compared with MM284 (cyclophilin A (CypA)): comparable to MM284
- calcineurin: concentration up to which no inhibition was found (calcineurin): ≥ 20 µmol/L

Molecule: H2N-GWGAAPV-↑-RGGCG-CONH2
- cleavage rate of the free peptide by elastase [1]: 0.36 s⁻¹

Molecule: PMX53
- effect on leukocyte stimulation by cytokines, leukotriene B4, endotoxins, or formylated peptides (leukocyte): has no effect on leukocyte stimulation by cytokines, leukotriene B4, endotoxins, or formylated peptides
- IC50 [2]: 20 nM

Molecule: Mal-l[CVWQDWGAHRC]-T-CONH2 (disulfide) [4W9A]
- inhibitor concentration that should be exceeded for complement inhibition (complement system): > 2 µmol/L

Molecule: CC[C@@H]1NC(=O)[C@H]([C@H](O)[C@H](C)Cc2nc3cc(C(=O)O)ccc3[nH]2)N(C)C(=O)[C@H](C(C)C)N(C)C(=O)[C@H](CC(C)C)N(C)C(=O)[C@H](CC(C)C)N(C)C(=O)[C@@H](C)NC(=O)[C@H](C)NC(=O)[C@H](CC(C)C)N(C)C(=O)[C@H](C(C)C)NC(=O)[C@H](CC(C)C)N(C)C(=O)CN(C)C1=O [MM284]
- calcineurin: concentration up to which no inhibition was found (calcineurin): ≥ 15 µmol/L
- extracellular CypA inhibition / immunosuppression (extracellular CypA): inhibits extracellular CypA, providing anti‐inflammatory without immunosuppressive activity

Reference: PMC9982591, “Inflammation‐Controlled Anti‐Inflammatory Hydrogels” (Advanced Science, 2022)
